Values quoted from earlier work, collected in US20040191328A1, “Combination of gallium compounds with nonchemotherapeutic anticancer agents in the treatment of neoplasia” (priority 2002, published 2004).

Experiments:
[1] = increased exposure secondary to decreased clearance

For `O=[N+]([O-])[O-].O=[N+]([O-])[O-].O=[N+]([O-])[O-].[Ga+3]` [Gallium nitrate, gallium nitrate], the “concentration at which growth inhibition occurs” value (cells in vitro; chronic exposure, low concentrations) is given as 10 µg/mL and the “concentration inducing both cellular cytotoxicity and inhibition of growth” value (cells in vitro; exposure of duration longer than 24 hours) is given as greater than 50 µg/mL.
In the case of `C/C=C/C[C@@H](C)C(=O)[C@H]1C(=O)N[C@@H](C(C)C)C(=O)N(C)CC(=O)N(C)[C@@H](CC(C)C)C(=O)N[C@@H](C(C)C)C(=O)N(C)[C@@H](CC(C)C)C(=O)N[C@@H](C)C(=O)N[C@H](C)C(=O)N(C)[C@@H](CC(C)C)C(=O)N(C)[C@@H](CC(C)C)C(=O)N(C)[C@@H](C(C)C)C(=O)N1C` [PSC 833], the “dose reduction of paclitaxel and doxorubicin needed to achieve equivalent myelosuppression” value [1] is listed as 2 fold.
